According to US20100310451A1, “ALTERED N-CADHERIN PROCESSING IN TUMOR CELLS BY FURIN AND PROPROTEIN CONVERTASE 5A (PC5A)” (THE ROYAL INSTITUTION FOR THE ADVANCEMENT OF LEARN, priority 2007, published 2010):
The star is where a group is joined. Decanoyl = CCCCCCCCCC(=O)*; CH2Cl = ClC*

Assays:
[1] = test system: proprotein convertases (PCs); assay: N-cadherin proteolytic processing assay, transfected HeLa cells; assay type: cell-based; settings: HeLa cells transfected with N-cadherin +/- FL-PC5A; 50 μM dec-cmk; proN antibody
Protocol: (§1) To assess N-cadherin proteolytic processing, we devised an assay where N-terminal cleavage products were detected in the conditioned medium of cells using the proN antibody. Cells were transiently transfected with the appropriate construct(s), the conditioned medium was collected 36 h later, concentrated, and total protein concentration was determined using a Lowry assay (Biorad). Conditioned medium (15 μg protein) was run on a 15% gel, and cleavage products detected were as follows: a 17 kDa band corresponded to cleavage at the consensus site, and a 20 kDa band represented cleavage at the second site.

[2] = test system: proprotein convertases (PCs); assay: N-cadherin proteolytic processing assay, transfected U251 and U343 glioma cells; assay type: cell-based, human; settings: U251 and U343 cells transfected with N-cadherin; dec-cmk in culture medium
Protocol: as §1

PC5A [3] = assay: PC5A cell surface localization, FL-PC5A transfected HeLa cells; assay type: cell-based; settings: HeLa cells transfected with FL-PC5A; heparin added to culture medium; non-permeabilizing
Protocol: (§2) Live-cell staining was carried out by incubating cells plated on coverslips with primary antibody diluted in medium without serum at 4° C. for 1 h. The cells were washed with PBS and fixed in 4% paraformaldehyde. Following washes with PBS, cells were incubated with fluorescent-conjugated secondary antibody diluted in 1% BSA, 0.02% TritonX, PBS, for 40 min at room temperature. Coverslips were then mounted and examined as above. For surface PC5A staining, cells were washed twice with ice-cold PBS, fixed with freshly prepared 3.7% paraformaldehyde for 10 min on ice, washed 3 times with PBS, incubated in 150 mM glycine for 5 min, washed once with PBS, blocked for 30 min in 1% BSA, incubated in primary antibody overnight at 4° C., washed 4 times with PBS, incubated with secondary antibody for 40 min at room temperature, and washed 4 times with PBS. Coverslips were mounted and examined as above.

PC5A [4] = assay: Endogenous PC5A cell surface localization, glioma cells; assay type: cell-based, human; settings: U251 and U343 cells; heparin added to the cells
Protocol: as §2

Substance | N-cadherin cleavage products in conditioned medium [1] | N-cadherin cleavage products in conditioned medium [2] | PC5A detection on the cell surface (PC5A [3]) | PC5A detection at the cell surface (PC5A [4])
Decanoyl-Arg-Val-Lys-Arg-chloromethylketone (Decanoyl-RVKR-CH2Cl) [dec-cmk] | no cleavage products detected | no cleavage products detected |  | 
heparin |  |  | not detected | not detected
